Results reported in ChEMBL document CHEMBL3822432, “Antibacterial and anticancer activity of a series of novel peptides incorporating cyclic tetra-substituted C(α) amino acids” (Bioorg Med Chem, 2016).
Values after ≈ are worked out from the molar mass of the structure shown. Non-standard residues stand in square brackets, D forms with d. Residues, ends and D or L forms follow the SMILES beside them. ξ: configuration not given here. Ac6c = NC1(C(=O)O)CCCCC1; Ac5c = NC1(C(=O)O)CCCC1; ξOrn = NCCCC(N)C(=O)O; ξDab = NCCC(N)C(=O)O; ξDap = NCC(N)C(=O)O

Experiments:
[1] = tested on: Mycobacterium tuberculosis; experiment: Antibacterial activity against ofloxacin-resistant Mycobacterium tuberculosis by two fold serial dilution method; format: functional
[2] = tested on: Mycobacterium tuberculosis; experiment: Antibacterial activity against rifampin/isoniazid-resistant Mycobacterium tuberculosis CSU 45 SRI 1377 by two fold serial dilution method; format: functional

SMILES	MIC [1] [µM]	MIC [2] [µM]
CC(=O)NCC(=O)N[C@H](Cc1ccccc1)C(=O)NC1(C(=O)NCC(=O)N2C(C(=O)N[C@@H](CCCCN)C(=O)NC3(C(=O)NCC(=O)N4C(C(=O)N[C@@H](Cc5ccccc5)C(=O)NC5(C(=O)NCC(=O)N6C(C(=O)NCC(=O)N[C@@H](CCCCN)C(=O)N7C(C(=O)N[C@H](CCCCN)C(=O)N[C@H](CCCCN)C(=O)N[C@H](CCCCN)C(=O)N[C@H](CCCCN)C(N)=O)CC8CCCCC87)CC7CCCCC76)CCCCC5)CC5CCCCC54)CCCCC3)CC3CCCCC32)CCCCC1 (stereo in doubt)	20.9 (≈ 50 µg/mL)	20.9 (≈ 50 µg/mL)
CC(=O)NCC(=O)N[C@@H](Cc1ccccc1)C(=O)NC1(C(=O)NCC(=O)N2Cc3ccccc3CC2C(=O)N[C@H](CCCCN)C(=O)NC2(C(=O)NCC(=O)N3Cc4ccccc4CC3C(=O)N[C@H](Cc3ccccc3)C(=O)NC3(C(=O)NCC(=O)N4Cc5ccccc5CC4C(=O)NCC(=O)N[C@H](CCCCN)C(=O)N4Cc5ccccc5CC4C(=O)N[C@H](CCCCN)C(=O)N[C@H](CCCCN)C(=O)N[C@H](CCCCN)C(=O)N[C@H](CCCCN)C(N)=O)CCCCC3)CCCCC2)CCCCC1 (some centres undefined)	20.7 (≈ 50 µg/mL)	20.7 (≈ 50 µg/mL)
CC(=O)NCC(=O)N[C@@H](Cc1ccccc1)C(=O)NC1(C(=O)NCC(=O)NC2(C(=O)N[C@@H](CCCCN)C(=O)N[C@@H](CCCCN)C(=O)NC3(C(=O)NCC(=O)NC4(C(=O)N[C@@H](Cc5ccccc5)C(=O)NC5(C(=O)NCC(=O)NC6(C(=O)NCC(=O)N[C@@H](CCCCN)C(=O)N[C@@H](CCCCN)C(=O)NC7(C(=O)N[C@@H](CCCCN)C(=O)N[C@@H](CCCCN)C(=O)N[C@@H](CCCCN)C(=O)N[C@@H](CCCCN)C(N)=O)CCCCC7)CCCCC6)CCCCC5)CCCCC4)CCCCC3)CCCCC2)CCCCC1 (Ac-GF[Ac6c]G[Ac6c]KK[Ac6c]G[Ac6c]F[Ac6c]G[Ac6c]GKK[Ac6c]KKKK-NH2)	4.92 (≈ 12.5 µg/mL)	4.92 (≈ 12.5 µg/mL)
CC(=O)NCC(=O)N[C@@H](Cc1ccccc1)C(=O)NC1(C(=O)NCC(=O)NC2(C(=O)NC(CN)C(=O)NC3(C(=O)NCC(=O)NC4(C(=O)N[C@@H](Cc5ccccc5)C(=O)NC5(C(=O)NCC(=O)NC6(C(=O)NCC(=O)NC(CN)C(=O)NC7(C(=O)NC(CN)C(=O)NC(CN)C(=O)NC(CN)C(=O)NC(CN)C(N)=O)CCCCC7)CCCCC6)CCCCC5)CCCCC4)CCCCC3)CCCCC2)CCCCC1 (some centres undefined) (Ac-GF[Ac6c]G[Ac6c][ξDap][Ac6c]G[Ac6c]F[Ac6c]G[Ac6c]G[ξDap][Ac6c][ξDap][ξDap][ξDap][ξDap]-NH2)	49.3 (≈ 100 µg/mL)	49.3 (≈ 100 µg/mL)
CC(=O)NCC(=O)N[C@@H](Cc1ccccc1)C(=O)NC1(C(=O)NCC(=O)NC2(C(=O)N[C@@H](CCCNC(=N)N)C(=O)NC3(C(=O)NCC(=O)NC4(C(=O)N[C@@H](Cc5ccccc5)C(=O)NC5(C(=O)NCC(=O)NC6(C(=O)NCC(=O)N[C@@H](CCCNC(=N)N)C(=O)NC7(C(=O)N[C@@H](CCCNC(=N)N)C(=O)N[C@@H](CCCNC(=N)N)C(=O)N[C@@H](CCCNC(=N)N)C(=O)N[C@@H](CCCNC(=N)N)C(N)=O)CCCC7)CCCC6)CCCC5)CCCC4)CCCC3)CCCC2)CCCC1 (Ac-GF[Ac5c]G[Ac5c]R[Ac5c]G[Ac5c]F[Ac5c]G[Ac5c]GR[Ac5c]RRRR-NH2)	> 43	> 43
CC(=O)NCC(=O)N[C@@H](Cc1ccccc1)C(=O)NC1(C(=O)NCC(=O)NC2(C(=O)N[C@@H](CCCNC(=N)N)C(=O)NC3(C(=O)NCC(=O)NC4(C(=O)N[C@@H](Cc5ccccc5)C(=O)NC5(C(=O)NCC(=O)NC6(C(=O)NCC(=O)N[C@@H](CCCNC(=N)N)C(=O)NC7(C(=O)N[C@@H](CCCNC(=N)N)C(=O)N[C@@H](CCCNC(=N)N)C(=O)N[C@@H](CCCNC(=N)N)C(=O)N[C@@H](CCCNC(=N)N)C(N)=O)CCCCC7)CCCCC6)CCCCC5)CCCCC4)CCCCC3)CCCCC2)CCCCC1 (Ac-GF[Ac6c]G[Ac6c]R[Ac6c]G[Ac6c]F[Ac6c]G[Ac6c]GR[Ac6c]RRRR-NH2)	40.8 (≈ 99.9 µg/mL)	10.2 (≈ 25 µg/mL)
CC(=O)NCC(=O)N[C@@H](Cc1ccccc1)C(=O)NC1(C(=O)NCC(=O)NC2(C(=O)N[C@@H](CCCCN)C(=O)NC3(C(=O)NCC(=O)NC4(C(=O)N[C@@H](Cc5ccccc5)C(=O)NC5(C(=O)NCC(=O)NC6(C(=O)NCC(=O)N[C@@H](CCCCN)C(=O)NC7(C(=O)N[C@@H](CCCCN)C(=O)N[C@@H](CCCCN)C(=O)N[C@@H](CCCCN)C(=O)N[C@@H](CCCCN)C(N)=O)CCCC7)CCCC6)CCCC5)CCCC4)CCCC3)CCCC2)CCCC1 (Ac-GF[Ac5c]G[Ac5c]K[Ac5c]G[Ac5c]F[Ac5c]G[Ac5c]GK[Ac5c]KKKK-NH2)	22.9 (≈ 49.9 µg/mL)	11.4 (≈ 25 µg/mL)
CC(=O)N[C@@H](CCCCN)C(=O)N[C@@H](CCCCN)C(=O)N[C@@H](CCCCN)C(=O)N[C@@H](CCCCN)C(=O)NCC(=O)N[C@@H](Cc1ccccc1)C(=O)NC1(C(=O)NCC(=O)NC2(C(=O)N[C@@H](CCCCN)C(=O)NC3(C(=O)NCC(=O)NC4(C(=O)N[C@@H](Cc5ccccc5)C(=O)NC5(C(=O)NCC(=O)NC6(C(=O)NCC(=O)N[C@@H](CCCCN)C(=O)NC7(C(N)=O)CCCCC7)CCCCC6)CCCCC5)CCCCC4)CCCCC3)CCCCC2)CCCCC1 (Ac-KKKKGF[Ac6c]G[Ac6c]K[Ac6c]G[Ac6c]F[Ac6c]G[Ac6c]GK[Ac6c]-NH2)	5.47 (≈ 12.5 µg/mL)	10.9 (≈ 25 µg/mL)
CC(=O)NCC(=O)N[C@@H](Cc1ccccc1)C(=O)NC1(C(=O)NCC(=O)NC2(C(=O)NC(CCN)C(=O)NC3(C(=O)NCC(=O)NC4(C(=O)N[C@@H](Cc5ccccc5)C(=O)NC5(C(=O)NCC(=O)NC6(C(=O)NCC(=O)NC(CCN)C(=O)NC7(C(=O)NC(CCN)C(=O)NC(CCN)C(=O)NC(CCN)C(=O)NC(CCN)C(N)=O)CCCCC7)CCCCC6)CCCCC5)CCCCC4)CCCCC3)CCCCC2)CCCCC1 (some centres undefined) (Ac-GF[Ac6c]G[Ac6c][ξDab][Ac6c]G[Ac6c]F[Ac6c]G[Ac6c]G[ξDab][Ac6c][ξDab][ξDab][ξDab][ξDab]-NH2)	25.6 (≈ 54.3 µg/mL)	25.6 (≈ 54.3 µg/mL)
CC(=O)NCC(=O)N[C@@H](Cc1ccccc1)C(=O)NC1(C(=O)NCC(=O)NC2(C(=O)NC(CCCN)C(=O)NC3(C(=O)NCC(=O)NC4(C(=O)N[C@@H](Cc5ccccc5)C(=O)NC5(C(=O)NCC(=O)NC6(C(=O)NCC(=O)NC(CCCN)C(=O)NC7(C(=O)NC(CCCN)C(=O)NC(CCCN)C(=O)NC(CCCN)C(=O)NC(CCCN)C(N)=O)CCCCC7)CCCCC6)CCCCC5)CCCCC4)CCCCC3)CCCCC2)CCCCC1 (some centres undefined) (Ac-GF[Ac6c]G[Ac6c][ξOrn][Ac6c]G[Ac6c]F[Ac6c]G[Ac6c]G[ξOrn][Ac6c][ξOrn][ξOrn][ξOrn][ξOrn]-NH2)	11.4 (≈ 25 µg/mL)	11.4 (≈ 25 µg/mL)
CN[C@@H]1[C@H](O[C@H]2[C@H](O[C@H]3[C@H](O)[C@@H](O)[C@H](N=C(N)N)[C@@H](O)[C@@H]3N=C(N)N)O[C@@H](C)[C@]2(O)C=O)O[C@@H](CO)[C@H](O)[C@H]1O [STREPTOMYCIN]	3.4 (≈ 1.98 µg/mL)	0.8 (≈ 0.465 µg/mL)
CC(=O)NCC(=O)N[C@@H](Cc1ccccc1)C(=O)NC1(C(=O)NCC(=O)NC2(C(=O)N[C@@H](CCCCN)C(=O)NC3(C(=O)NCC(=O)NC4(C(=O)N[C@@H](Cc5ccccc5)C(=O)NC5(C(=O)NCC(=O)NC6(C(=O)NCC(=O)N[C@@H](CCCCN)C(=O)NC7(C(=O)N[C@@H](CCCCN)C(=O)N[C@@H](CCCCN)C(=O)N[C@@H](CCCCN)C(=O)N[C@@H](CCCCN)C(N)=O)CCCC7)CCCCC6)CCCC5)CCCCC4)CCCC3)CCCCC2)CCCC1 (Ac-GF[Ac5c]G[Ac6c]K[Ac5c]G[Ac6c]F[Ac5c]G[Ac6c]GK[Ac5c]KKKK-NH2)	11.2 (≈ 25 µg/mL)	11.2 (≈ 25 µg/mL)
